Experimental data from patent publication US11427567B2, “Imidazolyl pyrimidinylamine compounds as CDK2 inhibitors” (Incyte Corporation, priority 2019, dated 2022).

Biological target: CDK2/Cyclin E1 (Homo sapiens (Human), UniProt P24941)
Experiment: CDK2/Cyclin E1 HTRF enzyme activity assay (Example A)
Assay type: biochemical
Details: 1 mM ATP
Experimental: Assays were conducted in white 384-well polystyrene plates in a final reaction volume of 8 μL. […] HTRF signals were read after 1 hour at room temperature on a PHERAstar FS plate reader (BMG Labtech). Data was analyzed with IDBS XLFit and GraphPad Prism 5.0 software using a three or four parameter dose response curve to determine IC50 for each compound.

SMILES | IC50 [nM]
CS(=O)(=O)N1CCC(Nc2ncc(C(F)(F)F)c(-c3cn(-c4cnccc4C#N)cn3)n2)CC1 [Example 67, 3-(4-(2-((1-(Methylsulfonyl)piperidin-4-yl)amino)-5-(trifluoromethyl)pyrimidin-4-yl)-1H-imidazol-1-yl)isonicotinonitrile] | ≤ 50
CN1CCN(Cc2ccc(-n3cnc(-c4nc(NC5CCN(S(C)(=O)=O)CC5)ncc4C(F)(F)F)c3)c(Cl)c2)CC1=O [Example 211, 4-(3-Chloro-4-(4-(2-((1-(methylsulfonyl)-piperidin-4-yl)amino)-5-(trifluoromethyl)-pyrimidin-4-yl)-1H-imidazol-1-yl)benzyl)-1-methylpiperazin-2-one] | ≤ 50
CN(C)CCNc1ccc(-n2cnc(-c3nc(NC4CCN(S(C)(=O)=O)CC4)ncc3C(F)(F)F)c2)c(C#N)c1 [Example 432, 5-((2-(Dimethylamino)ethyl)amino)-2-(4-(2-((1-(methylsulfonyl)piperidin-4-yl)amino)-5-(trifluoromethyl)pyrimidin-4-yl)-1H-imidazol-1-yl)benzonitrile] | ≤ 50
C[C@]1(O)CCN(Cc2ccc(-n3cnc(-c4nc(NC5CCN(S(C)(=O)=O)CC5)ncc4C(F)(F)F)c3)c(C(F)(F)F)c2)C1 [Example 261, (S)-3-Methyl-1-(4-(4-(2-((1-(methylsulfonyl)piperidin-4-yl)amino)-5-(trifluoromethyl)pyrimidin-4-yl)-1H-imidazol-1-yl)-3-(trifluoromethyl)benzyl) pyrrolidin-3-ol] | ≤ 50
CC(C)(O)Cn1cnc(-c2nc(N[C@H]3CCN(S(=O)(=O)C4CC4)C[C@H]3F)ncc2C(F)(F)F)c1 [Example 323, 1-(4-(2-(((3R,4S)-1-(Cyclopropylsulfonyl)-3-fluoropiperidin-4-yl)amino)-5-(trifluoromethyl)pyrimidin-4-yl)-1H-imidazol-1-yl)-2-methylpropan-2-ol] | ≤ 50
CNCc1ccc(-n2cc(-c3nc(NC4CCN(S(C)(=O)=O)CC4)ncc3C#N)nc2C)c(Cl)c1 [Example 289, 4-(1-(2-Chloro-4-((methylamino)methyl)phenyl)-2-methyl-1H-imidazol-4-yl)-2-((1-(methylsulfonyl)piperidin-4-yl)amino)pyrimidine-5-carbonitrile] | ≤ 50
CS(=O)(=O)N1CCC(Nc2ncc(C(F)(F)F)c(-c3cn(-c4ccc(CN5CCOCC5)cc4Cl)cn3)n2)CC1 [Example 210, 4-(1-(2-Chloro-4-(morpholinomethyl)-phenyl)-1H-imidazol-4-yl)-N-(1-(methyl-sulfonyl)piperidin-4-yl)-5-(trifluoro-methyl)pyrimidin-2-amine] | ≤ 50
CC1CN(Cc2ccc(-n3cnc(-c4nc(NC5CCN(S(C)(=O)=O)CC5)ncc4C(F)(F)F)c3)c(Cl)c2)C1 [Example 177, 4-(1-(2-Chloro-4-((3-methylazetidin-1-yl)methyl)phenyl)-1H-imidazol-4-yl)-N-(1-(methylsulfonyl)piperidin-4-yl)-5-(trifluoromethyl)pyrimidin-2-amine] | ≤ 50
CCN(CC)Cc1ccc(-n2cnc(-c3nc(NC4CCN(S(C)(=O)=O)CC4)ncc3C(F)(F)F)c2)c(C(F)(F)F)c1 [Example 258, 4-(1-(4-((Diethylamino)methyl)-2-(trifluoromethyl)phenyl)-1H-imidazol-4-yl)-N-(1-(methylsulfonyl)piperidin-4-yl)-5-(trifluoromethyl)pyrimidin-2-amine] | ≤ 50
C[C@@]1(O)CCN(Cc2cccc(-n3cnc(-c4nc(NC5CCN(S(C)(=O)=O)CC5)ncc4C(F)(F)F)c3)c2C(F)(F)F)C1 [Example 381, (R)-3-Methyl-1-(3-(4-(2-((1-(methylsulfonyl)piperidin-4-yl)amino)-5-(trifluoromethyl)pyrimi-din-4-yl)-1H-imidazol-1-yl)-2-(trifluoromethyl)benzyl) pyrrolidin-3-ol] | ≤ 50
C[C@@]1(O)CCN(Cc2ccc(-n3cnc(-c4nc(N[C@@H]5CCN(S(C)(=O)=O)C[C@H]5F)ncc4C(F)(F)F)c3)c(Cl)c2)C1 [Example 397, (R)-1-(3-Chloro-4-(4-(2-(((3R,4R)-3-fluoro-1-(methylsulfonyl)piperidin-4-yl)amino)-5-(trifluoromethyl)pyrimidin-4-yl)-1H-imidazol-1-yl)benzyl)-3-methylpyrrolidin-3-ol] | ≤ 50

Second part, the compound after the results:

IC50 [nM] | SMILES
≤ 50 | CCNCc1ccc(-n2cnc(-c3nc(N[C@H]4CCN(S(C)(=O)=O)C[C@H]4C)ncc3C(F)(F)F)c2)c(Cl)c1 [Example 218, 4-(1-(2-Chloro-4-((ethylamino)methyl)-phenyl)-1H-imidazol-4-yl)-N-((3R,4S)-3-methyl-1-(methyl-sulfonyl)piperidin-4-yl)-5-(trifluoro-methyl)-pyrimidin-2-amine]
≤ 50 | CS(=O)(=O)N1CCC(Nc2ncc(C(F)(F)F)c(-c3cn(-c4ccc(CNCC#N)cc4Cl)cn3)n2)CC1 [Example 187, 2-((3-Chloro-4-(4-(2-((1-(methylsulfonyl)-piperidin-4-yl)amino)-5-(trifluoromethyl)-pyrimidin-4-yl)-1H-imidazol-1-yl)benzyl)-amino)acetonitrile]
≤ 50 | CS(=O)(=O)N1CCC(Nc2ncc(C(F)(F)F)c(-c3cn(-c4ccnc(C#N)c4Cl)cn3)n2)CC1 [Example 307, 3-Chloro-4-(4-(2-((1-(methylsulfonyl)piperidin-4-yl)amino)-5-(trifluoromethyl)pyrimidin-4-yl)-1H-imidazol-1-yl)picolinonitrile]
≤ 50 | CCS(=O)(=O)N1CCC(Nc2ncc(C(F)(F)F)c(-c3cn(CC(C)(C)O)cn3)n2)CC1 [Example 324, 1-(4-(2-((1-(Ethylsulfonyl)piperidin-4-yl)amino)-5-(trifluoromethyl)pyrimidin-4-yl)-1H-imidazol-1-yl)-2-methylpropan-2-ol]
≤ 50 | CS(=O)(=O)N1CCC(Nc2ncc(C(F)(F)F)c(-c3cn(-c4ccc(Cn5ncnn5)cc4Cl)cn3)n2)CC1 [Example 243, 4-(1-(4-((2H-Tetrazol-2-yl)methyl)-2-chlorophenyl)-1H-imidazol-4-yl)-N-(1-(methylsulfonyl)piperidin-4-yl)-5-(trifluoromethyl)pyrimidin-2-amine]
≤ 50 | CC1(O)CN(Cc2ccc(-n3cnc(-c4nc(NC5CCN(S(C)(=O)=O)CC5)ncc4C(F)(F)F)c3)c(Cl)c2)C1 [Example 194, 1-(3-Chloro-4-(4-(2-((1-(methylsulfonyl)-piperidin-4-yl)amino)-5-(trifluoromethyl)-pyrimidin-4-yl)-1H-imidazol-1-yl)benzyl)-3-methylazetidin-3-ol]
≤ 50 | CNCc1ccc(-n2cc(-c3nc(N[C@H]4CCN(S(C)(=O)=O)C[C@H]4F)ncc3C(F)(F)F)nc2C)c(F)c1 [Example 287, N-((3R,4S)-3-Fluoro-1-(methylsulfonyl)piperidin-4-yl)-4-(1-(2-fluoro-4-((methylamino)methyl)phenyl)-2-methyl-1H-imidazol-4-yl)-5-(trifluoromethyl)pyrimidin-2-amine]
≤ 50 | CNCCc1cccc(-n2cnc(-c3nc(NC4CCN(S(C)(=O)=O)CC4)ncc3C(F)(F)F)c2)c1Cl [Example 467, 4-(1-(2-Chloro-3-(2-(methylamino)ethyl)phenyl)-1H-imidazol-4-yl)-N-(1-(methylsulfonyl)piperidin-4-yl)-5-(trifluoromethyl)pyrimidin-2-amine]
≤ 50 | CN(C)Cc1cccc(-n2cnc(-c3nc(NC4CCN(S(C)(=O)=O)CC4)ncc3C(F)(F)F)c2)c1Cl [Example 77, 4-(1-(2-Chloro-3-((dimethylamino)methyl)phenyl)-1H-imidazol-4-yl)-N-(1-(methylsulfonyl)piperidin-4-yl)-5-(trifluoromethyl)pyrimidin-2-amine]
≤ 50 | CN1CCN(Cc2ccc(-n3cnc(-c4nc(NC5CCN(S(C)(=O)=O)CC5)ncc4C(F)(F)F)c3)c(Cl)c2)C1=O [Example 453, 1-(3-Chloro-4-(4-(2-((1-(methylsulfonyl)piperidin-4-yl)amino)-5-(trifluoromethyl)pyrimidin-4-yl)-1H-imidazol-1-yl)benzyl)-3-methylimidazolidin-2-one]
≤ 50 | CCNC(C)c1ccc(-n2cnc(-c3nc(NC4CCN(S(C)(=O)=O)CC4)ncc3C(F)(F)F)c2)c(Cl)c1 (centres unmarked) [Example 273, 4-(1-(2-Chloro-4-(1-(ethylamino)ethyl)phenyl)-1H-imidazol-4-yl)-N-(1-(methylsulfonyl)piperidin-4-yl)-5-(trifluoromethyl)pyrimidin-2-amine]
≤ 50 | CS(=O)(=O)N1CCC(Nc2ncc(C(F)(F)F)c(-c3cn(-c4ccc5ncccc5c4Br)cn3)n2)CC1 [Example 164, 4-(1-(5-Bromoquinolin-6-yl)-1H-imidazol-4-yl)-N-(1-(methyl-sulfonyl)piperidin-4-yl)-5-(trifluoromethyl)-pyrimidin-2-amine]
≤ 50 | C[C@@H]1CN(S(C)(=O)=O)CC[C@@H]1Nc1ncc(C(F)(F)F)c(-c2cn(-c3ccc(CNCC#N)cc3Cl)cn2)n1 [Example 217, 2-((3-Chloro-4-(4-(2-(((3R,4S)-3-methyl-1-(methylsulfonyl)-piperidin-4-yl)amino)-5-(trifluoromethyl)-pyrimidin-4-yl)-1H-imidazol-1-yl)benzyl)-amino)acetonitrile]
≤ 50 | Cc1nc(-c2nc(NC3CCN(S(C)(=O)=O)CC3)ncc2C(F)(F)F)cn1-c1ccc(N2CCC(N3CCC(O)C3)CC2)cc1F (centres unmarked) [Example 455, 1-(1-(3-Fluoro-4-(2-methyl-4-(2-((1-(methylsulfonyl)piperidin-4-yl)amino)-5-(trifluoromethyl)pyrimidin-4-yl)-1H-imidazol-1-yl)phenyl)piperidin-4-yl)pyrrolidin-3-ol]
≤ 50 | CS(=O)(=O)N1CCC(Nc2ncc(Cl)c(-c3cn(-c4ccc(C#N)cc4Cl)cn3)n2)CC1 [Example 171, 3-Chloro-4-(4-(5-chloro-2-((1-(methylsulfonyl)-piperidin-4-yl)-amino)pyrimidin-4-yl)-1H-imidazol-1-yl)benzonitrile]
